Data from patent US7022315B2, “Administration of a thiol-based chemoprotectant compound” (Oregon Health & Science University, priority 2000, dated 2006).
Converted amounts (≈) assume the structure as drawn. Like-named read-outs stand apart in the source and are kept apart here.

Tests used:
rats = assay: Blood counts after chemotherapy with or without NAC by left carotid aortic infusion (Example 1); format: in vivo, rat
Excerpt: The rats were set up for drug administration by pushing a catheter forward past the junction of the external and internal carotid arteries (toward the aorta), and temporarily sealing off the internal carotid for good measure so nothing goes to the brain (left carotid aortic infusion method). In patients where entry is via the femoral artery and the catheter is threaded through the aorta to get to the brain in the first place, one would just pull the catheter back to the aorta to do the NAC infusion.
Rats were treated with carboplatin (200 mg/m^2), melphalan (10 mg/m^2) and etoposide phosphate (100 mg/m^2). In the NAC animals, NAC was infused with the left carotid aortic infusion method immediately after the chemotherapeutic agents, at concentrations ranging from 400–1200 mg/M^2. White blood cells (wbc) and platelets (plt) were counted at baseline before the experiment and at 6 and 9–11 days after treatment with the chemotherapeutic agents. […] Counts are in 1000s per μl blood. […] The lack of white blood cell effect was not repeated as there were significant effects shown below.
The data in table 2 show additional results. […] White blood cells (wbc) and platelets (plt) were counted at baseline before the experiment and at 6 and 9 days after treatment with the chemotherapeutic agents.

[1] = Radiolabeled NAC tissue delivery by route of administration; format: in vivo, rat; details: for 14C-NAC found in brain: Example 10
Method: Radiolabeled NAC in combination with unlabeled low dose NAC (140 mg/kg) or high dose NAC (1200 mg/kg) was administered to rats with the following routes of infusion: i.v. (open bars), intra-arterially into the right carotid artery (striped bars), intra-arterial via the left carotid artery with left internal artery occlusion (aortic infusion) (black bars), and intra-arterial (right carotid) with BBBD (cross hatched bars). Radiolabel in tissue homogenates is expressed as the mean and standard error of the % administered dose of 14C-NAC per gram of tissue (n=3 rats per group). Significant differences from i.v. delivery are indicated by *P<0.05 and **P<0.001.
In this experiment, radiolabeled NAC was administered to rats by three different routes. Liver and kidney tissue, in addition to the ipsilateral and contralateral hemispheres of the brain, were analyzed for radioactivity. Results are shown as the percent of the injected radioactive dose per gram of tissue. Route indicates intravenous (i.v.), intra-arterial into the right carotid artery (i.a.), or left carotid with internal artery occlusion and aortic infusion (left carotid aortic infusion). The left carotid aortic infusion intra-arterial method uses descending aorta placement of the catheter tip and NAC administration.
This example tested whether the inventive method for intra-arterial infusion (via the left carotid artery, with left internal artery occlusion) could reduce brain delivery of NAC and increase systemic delivery. Brain delivery was 0.04% of the injected dose with the inventive method (n=2).
The method of administration of NAC and its biodistribution was tested. Intra-arterial infusion retrograde via the left external carotid artery, with transient left internal artery occlusion, was evaluated as a mechanism to essentially perfuse via the descending aorta with limited delivery to the brain. […] The serum concentration of NAC 10 min after administration of 1200 mg/kg was 2.4 0.6 mg/ml (n=6) as determined by radiolabel remaining in the blood.

LX-1 SCLC cells = assay: cells; details: for EC50: average ± pooled sd of two experiments
Method: Cytotoxicity was assessed in cultured LX-1 SCLC cells, 1×10^4 cells per well in 96 well plates, using the WST colorometric assay. […] Chemoprotectant was added at the indicated concentration of N-acetylcysteine shown in FIG. 3A or D-methionine shown in FIG. 3B either alone (n) or immediately following chemotherapy. Data are expressed as the percentage of live cells compared to untreated control samples (without chemotherapy) and each point represents the mean±standard deviation of 4 wells.
The dose/response for rescue from chemotherapy cytotoxicity was evaluated for four different small molecular weight sulfur containing chemoprotectants.
Chemotherapy agents were fixed at the 90% lethal dose for each agent. Each EC50 measurement comprised 6 concentrations with 4 wells per concentration, and each dose response was performed twice for each protectant. EC50 concentrations, in μg/ml are reported as the average±pooled standard deviation for two independent experiments.

[2] = test system: Caspase-2 activity in B.5 LX-1 cells; assay: Caspase-2 enzymatic activity (apoptosis); format: cell-based
Method: FIGS. 7A and 7B show the effect of cytoenhancement and chemoprotection on apoptosis. […] Apoptosis was assessed in cultured LX-1 SCLC cells pretreated for 18 hours with or without 100 μM BSO. The experimental conditions were no addition (open bars), melphalan (10 μg/ml, striped bars) or melphalan (10 μg/ml) plus N-acetylcysteine (1000 μg/ml) (cross hatched bars) for 20 h prior to harvest. Caspase-2 activity is expressed as percentage activity in untreated control samples (mean±standard deviation, n=3). TUNEL staining is expressed as the percentage of cells showing positive staining.
Apoptosis was evaluated by measuring Caspase-2 enzymatic activity and by in situ TUNEL staining. […] The increase in caspase activity was variable between experiments and ranged from 50–100% at 7–8 h to 250–600% at 20–24 h after treatment with melphalan. […] In the experiment shown in FIG. 7B, TUNEL staining after melphalan treatment was positive in 29 of 3643 cells, compared to 7 of 4395 cells in the untreated control, and BSO treatment prior to melphalan increased the positive staining to 800 of 1699 cells. […] In both assays, activity was maximal with low doses of melphalan, or with a 1 hour pulse treatment with the doses used in the cytotoxicity assays.
Samples of the cells used in the caspase and TUNEL assays were also evaluated for membrane permeability by trypan blue exclusion.

[3] = test system: patients with moderate renal insufficiency; details: approximately 1200 mg per day orally, day before and day of contrast agent; computed tomography; cited from earlier work
[4] = route left carotid aortic infusion, n=2

## CC(=O)N[C@@H](CS)C(=O)O [NAC, N-acetylcysteine]
rats
  platelet recovery from chemotherapy: recovered from chemotherapy faster
[1]; 10 min after administration of 1200 mg/kg, radiolabel remaining in the blood, n=6
  serum concentration of NAC: 2400 µg/mL
[1]; aortic infusion
  14C-NAC found in brain: minimized brain delivery
[1]; i.v.
  14C-NAC found in brain: negligible amounts
[1]; intra-arterial, right internal carotid artery
  14C-NAC found in brain: high levels of radiolabel in the right cerebral hemisphere
[1]; high dose (1200 mg/kg) NAC, data not shown
  liver and kidney delivery with aortic infusion: no change in liver and kidney delivery
[1]; intra-arterial infusion via the left carotid artery with left internal artery occlusion, n=2
  Brain delivery: 0.04 % of the injected dose
[1]; low dose of NAC (140 mg/kg)
  liver and kidney delivery with aortic infusion: decreased liver delivery and increased kidney delivery
[1]; route i.a. into the right carotid artery, n=3
  left hem: 0.03% of the injected radioactive dose per gram of tissue
[1]; route i.v., left brain hemisphere, n=2
  left hem: 0.02% of the injected radioactive dose per gram of tissue
[1]; route i.v., n=2
  kidney: 0.72% of the injected radioactive dose per gram of tissue
  liver: 0.59% of the injected radioactive dose per gram of tissue
[1]; [4]
  kidney: 1.42% of the injected radioactive dose per gram of tissue
  left hem: 0.04% of the injected radioactive dose per gram of tissue
  liver: 0.29% of the injected radioactive dose per gram of tissue
  right hem: 0.04% of the injected radioactive dose per gram of tissue
LX-1 SCLC cells
  reduction of the cytotoxicity of each alkylator: 75–90%
LX-1 SCLC cells; on a μg/ml basis
  relative effectiveness among the thiol agents tested: most effective
LX-1 SCLC cells; read-out: Chemoprotective agent EC50, protection against carboplatin 200 μg/ml (about 90% lethal dose)
  EC50: 200 ± 15 µg/mL (≈ 1230 µM)
LX-1 SCLC cells; read-out: Chemoprotective agent EC50, protection against cisplatin 15 μg/ml (about 90% lethal dose)
  EC50: 151 ± 15 µg/mL (≈ 925 µM)
LX-1 SCLC cells; read-out: Chemoprotective agent EC50, protection against melphalan 20 μg/ml (about 90% lethal dose)
  EC50: 74 ± 18 µg/mL (≈ 453 µM)
[2]
  effect on cisplatin- or carboplatin-induced caspase activity: no reduction in caspase enzymatic activity could be detected
[2]; melphalan 10 μg/ml, N-acetylcysteine 1000 μg/ml
  effect on melphalan-induced Caspase-2 activity: reduced
[3]
  effect on renal function after radiographic contrast agent: prevented the expected decline in renal function
